{"source": "patent US10287320B2", "about": "“Anti-lymphoma peptides” (Universitetet i Tromsø—Norges Arktiske Universitet, priority 2014, dated 2019)", "key": {"MRC-5 cells": {"test_system": "MRC-5 cells", "experiment": "MTT cytotoxicity assay against MRC-5 normal fibroblasts (selectivity, SI-1)", "format": "cell-based, Human", "procedure": "The first screen against A20 and MRC-5 was done manually, while the lymphoma panel screen were done at Marbio (Tromsø) using an automated platform (Biomek NX, Beckman Coulter).\nCells were automatically counted (Z1 Coulter Particle Counter, Beckman Coulter) and the cells seeded out in 96-well plates. The plates were incubated for at least 16 hours before the start of the assay.\n(§1) The growth media was removed and the cells washed once with 100 μL assay media (RPMI-1640). Cells were then treated with 100 μL peptide solution (concentration varying from 500-10 μg/mL) for 4 hrs. Normal assay media and assay media containing 0.1% Triton were used as negative and positive controls, respectively. After this period 10 μL of a MTT solution (5 mg/mL) was added to each well and the plate incubated for a further 2 hrs. Following this 70 μL of the media was carefully removed and 100 μL acidified isopropanol added. The formed formazan crystals were dissolved by agitating the cells with a micropipette and by shaking (30 mins). The absorbance of the reduced MTT (formazan) was read on Versa Max Microplate Reader (Molecular Devices) at 590 nm. All assays, unless mentioned otherwise, were done in triplicate.\nDuring the initial screening process peptide analogues was tested against normal human fibroblasts (SI-1) and the results used to estimate cytotoxicity towards healthy cells surrounding the tumor."}, "A20 cells": {"test_system": "A20 cells", "experiment": "MTT cytotoxicity assay against A20 lymphoma cells", "format": "cell-based, Murine", "details": "for ΔIC50 (difference in activity against A20): compared with peptide 4a; for ΔIC50 on further increase of charge: 4a→5 and 6a→7, A20 cells; for IC50: A20 cells", "procedure": "as §1, with “The first screen against A20 and MRC-5 was done manually, while the lymphoma panel screen were done at Marbio (Tromsø) using an automated platform (Biomek NX, Beckman Coulter). Cells were automatically counted (Z1 Coulter Particle Counter, Beckman Coulter) and the cells seeded out in 96-well plates. The plates were incubated for at least 16 hours before the start of the assay. The growth” for “The growth”"}, "[1]": {"experiment": "Cardiovascular toxicity assessment in telemeterized rats", "format": "in vivo, Sprague-Dawley rats", "details": "IV twice-daily, telemetry -1 to 8 hours", "procedure": "Male Sprague-Dawley (Charles River, Portage, Mich.) rats (320-400 g) were instrumented with DSI (St. Paul, Minn.) telemetry transmitters by CorDynamics.\nEWL-6 was stored in a freezer set to maintain approximately −20° C. and protected from light. A formulation comprising EWL-6 was prepared at a dose volume of 1 mL/kg/dose in 0.9% sodium chloride for injection, U.S.P., for IV dosing. Doses were filtered through a […] PP filter prior to injection.\nEach rat was manually restrained and vehicle or EWL-6 dosed twice-daily intravenously over approximately 1-2 minutes. Daily doses were separated by approximately 4 hours.\nPulse pressure (FIG. 8) and mean arterial pressure (FIG. 9) were recorded for −1 to 8 hours following the first daily dose via telemetry and reported in 1 minute averages from −1 to 8 hours following the first daily dose."}, "[2]": {"test_system": "SU-DHL-6 (diffuse large B cell lymphoma)", "format": "cell-based, Human", "details": "16 h", "procedure": "as §1, with “The first screen against A20 and MRC-5 was done manually, while the lymphoma panel screen were done at Marbio (Tromsø) using an automated platform (Biomek NX, Beckman Coulter). Cells were automatically counted (Z1 Coulter Particle Counter, Beckman Coulter) and the cells seeded out in 96-well plates. The plates were incubated for at least 16 hours before the start of the assay. The growth” for “The growth”, “media (RPMI-1640). […] Normal assay” for “media (RPMI-1640). Cells were then treated with 100 μL peptide solution (concentration varying from 500-10 μg/mL) for 4 hrs. Normal assay”"}, "[3]": {"test_system": "Ramos (Burkitt's lymphoma)", "format": "cell-based, Human", "details": "16 h", "procedure": "as §1, with “The first screen against A20 and MRC-5 was done manually, while the lymphoma panel screen were done at Marbio (Tromsø) using an automated platform (Biomek NX, Beckman Coulter). Cells were automatically counted (Z1 Coulter Particle Counter, Beckman Coulter) and the cells seeded out in 96-well plates. The plates were incubated for at least 16 hours before the start of the assay. The growth” for “The growth”"}, "[4]": {"test_system": "Namalawa (Burkitt's lymphoma)", "format": "cell-based, Human", "details": "16 h", "procedure": "as §1, with “The first screen against A20 and MRC-5 was done manually, while the lymphoma panel screen were done at Marbio (Tromsø) using an automated platform (Biomek NX, Beckman Coulter). Cells were automatically counted (Z1 Coulter Particle Counter, Beckman Coulter) and the cells seeded out in 96-well plates. The plates were incubated for at least 16 hours before the start of the assay. The growth” for “The growth”"}, "three T-lymphoma lines": {"test_system": "three T-lymphoma lines", "format": "cell-based, Human", "details": "16 h", "procedure": "as §1, with “The first screen against A20 and MRC-5 was done manually, while the lymphoma panel screen were done at Marbio (Tromsø) using an automated platform (Biomek NX, Beckman Coulter). Cells were automatically counted (Z1 Coulter Particle Counter, Beckman Coulter) and the cells seeded out in 96-well plates. The plates were incubated for at least 16 hours before the start of the assay. The growth” for “The growth”"}, "A20 lymphomas": {"test_system": "A20 lymphomas", "details": "mouse, in vivo", "procedure": "A20 tumor cells were harvested, washed in RPMI-1640 and inoculated (i.d.) into the left side of the abdomen in BALB/c mice (5×10^6 cells in 50 μl RPMI-1640 per mouse). When the tumor size reached 20 mm^2 the mice were split into three groups and treated; Group1—nine mice with the vehicle (0.9% NaCl in sterile H2O), Group2a—eight mice where the tumors were treated with peptide 6a, and Group 3a—nine mice where the tumors were treated with peptide 11. Intralesional injections were performed once a day for three consecutive days.\nTumor size was measured three times a week using an electronic caliper and expressed as the area of an ellipse [(maximum dimension/2)×(minimum dimension/2)×[…]. Animals were killed when the tumor exceeded 100 mm^2. Animals were killed also if the tumor had not reached that size but presented ulcerations or the animals developed metastasis.\nSurvival curves were compared by the log-rank test. Groups were compared using one-way ANOVA test with Tukey's multiple comparison. Differences were considered significant when P<0.05."}, "[5]": {"test_system": "DU-145 Prostate carcinoma", "format": "cell-based", "details": "4 h", "procedure": "as §1"}, "HT-29 Colon carcinoma": {"test_system": "HT-29 Colon carcinoma", "format": "cell-based", "details": "4 h", "procedure": "as §1"}, "[6]": {"details": "Table 1, selectivity, normal human fibroblasts (MRC-5) versus A20 lymphoma, MTT"}, "[7]": {"details": "five most active peptides from the A20 screening, tested against normal human fibroblasts"}, "[8]": {"details": "Table 2, analogues of 6a, MRC-5 fibroblasts versus A20 lymphoma, MTT"}, "[9]": {"details": "Table 3, MRC-5 fibroblasts versus A20 lymphoma"}}, "note": "Square brackets hold non-standard residues; d marks the D form. Ends that are not written are not given here. Trp(2,5,7-tBu3) = CC(C)(C)c1cc(C(C)(C)C)c2[nH]c(C(C)(C)C)c(C[C@H](N)C(=O)O)c2c1"}
{"substance": "(Tbt)R(Tbt)-GG-RRRRRRR (SEQ ID NO: 17) ([Trp(2,5,7-tBu3)]R[Trp(2,5,7-tBu3)]GGRRRRRRR-NH2; N-terminus assumed; SMILES CC(C)(C)c1cc(C(C)(C)C)c2[nH]c(C(C)(C)C)c(C[C@H](NC(=O)[C@H](CCCNC(=N)N)NC(=O)[C@@H](N)Cc3c(C(C)(C)C)[nH]c4c(C(C)(C)C)cc(C(C)(C)C)cc34)C(=O)NCC(=O)NCC(=O)N[C@@H](CCCNC(=N)N)C(=O)N[C@@H](CCCNC(=N)N)C(=O)N[C@@H](CCCNC(=N)N)C(=O)N[C@@H](CCCNC(=N)N)C(=O)N[C@@H](CCCNC(=N)N)C(=O)N[C@@H](CCCNC(=N)N)C(=O)N[C@@H](CCCNC(=N)N)C(N)=O)c2c1) [Peptide 4c]", "values": [{"measurement": "SI-1", "setting": "MRC-5 cells; [6]", "value": 1}, {"measurement": "SI-1 / selectivity", "setting": "MRC-5 cells; [7]", "value": "almost no selectivity at all"}, {"measurement": "ΔIC50 (difference in activity against A20)", "setting": "A20 cells", "value": "small and unexpected decrease in activity"}]}
{"substance": "KLAKLAKKLAKLAK-GG-RRRRRRR (SEQ ID NO: 9) [Peptide 1b]", "values": [{"measurement": "SI-1", "setting": "MRC-5 cells; [6]", "value": 5}, {"measurement": "SI-1 / selectivity", "setting": "MRC-5 cells; [7]", "value": "low selectivity"}]}
{"substance": "RWRW-GG-RRRRRRR (SEQ ID NO: 13) (RWRWGGRRRRRRR-NH2) [Peptide 5]", "values": [{"measurement": "ΔIC50 on further increase of charge", "setting": "A20 cells", "value": "≈ 1 μM"}]}
{"substance": "RWRWRWGGRRRRRRR-NH2 [Peptide 7, RWRWRW-GG-RRRRRRR (SEQ ID NO: 15)]", "values": [{"measurement": "SI-1 / selectivity", "setting": "MRC-5 cells; 16 h", "value": "higher than 10"}, {"measurement": "SI-1", "setting": "MRC-5 cells; [6]", "value": 12}, {"measurement": "ΔIC50 on further increase of charge", "setting": "A20 cells", "value": "≈ 1 μM"}]}
{"substance": "W-GG-RRRRRRR (SEQ ID NO: 10) (WGGRRRRRRR-NH2) [Peptide 2]", "values": [{"measurement": "ΔIC50 (difference in activity against A20)", "setting": "A20 cells", "value": 58, "unit": "µM"}]}
{"substance": "WGRRRRRGWGRRRRGW-NH2 [EWL-6, WGRRRRRGWGRRRRGW (SEQ ID NO: 8)]", "values": [{"measurement": "mean arterial pressure compared to control", "setting": "[1]", "value": "No noticeable difference"}, {"measurement": "pulse pressure compared to control", "setting": "[1]", "value": "No noticeable difference"}]}
{"substance": "WR(Tbt)-GG-RRRRRRR (SEQ ID NO: 16) (WR[Trp(2,5,7-tBu3)]GGRRRRRRR-NH2; N-terminus assumed; SMILES CC(C)(C)c1cc(C(C)(C)C)c2[nH]c(C(C)(C)C)c(C[C@H](NC(=O)[C@H](CCCNC(=N)N)NC(=O)[C@@H](N)Cc3c[nH]c4ccccc34)C(=O)NCC(=O)NCC(=O)N[C@@H](CCCNC(=N)N)C(=O)N[C@@H](CCCNC(=N)N)C(=O)N[C@@H](CCCNC(=N)N)C(=O)N[C@@H](CCCNC(=N)N)C(=O)N[C@@H](CCCNC(=N)N)C(=O)N[C@@H](CCCNC(=N)N)C(=O)N[C@@H](CCCNC(=N)N)C(N)=O)c2c1) [Peptide 4b]", "values": [{"measurement": "SI-1", "setting": "MRC-5 cells; [6]", "value": 2}, {"measurement": "SI-1 / selectivity", "setting": "MRC-5 cells; [7]", "value": "almost no selectivity at all"}]}
{"substance": "WRRRGRRWRGRRRW [Peptide 6c, WRRRGRRWRGRRRW (SEQ ID NO: 22)]", "values": [{"measurement": "SI-1", "setting": "MRC-5 cells; [8]", "value": ">100"}, {"measurement": "SI-1", "setting": "MRC-5 cells; [9]", "value": ">100"}, {"measurement": "IC50", "setting": "A20 cells; Table 3, MTT, 4 hrs treatment", "value": 6.1, "unit": "µM"}]}
{"substance": "WRRRRRWRRRRW-NH2 [Peptide 11, WRRRRRWRRRRW (SEQ ID NO: 23)]", "values": [{"measurement": "IC50", "setting": "[2]", "value": "< 10", "unit": "µM"}, {"measurement": "IC50", "setting": "[3]", "value": "< 10", "unit": "µM"}, {"measurement": "IC50", "setting": "[4]", "value": "< 10", "unit": "µM"}, {"measurement": "IC50", "setting": "three T-lymphoma lines", "value": "~4.6", "unit": "µM"}, {"measurement": "systemic toxic effects", "setting": "A20 lymphomas", "value": "no signs of systemic toxic effects"}, {"measurement": "IC50", "setting": "[5]", "value": 69, "unit": "µM"}, {"measurement": "IC50", "setting": "HT-29 Colon carcinoma", "value": 70, "unit": "µM"}]}
{"substance": "WRWRW-GG-RRRR (SEQ ID NO: 20) (WRWRWGGRRRR-NH2) [Peptide 10]", "values": [{"measurement": "SI-1", "setting": "MRC-5 cells; [8]", "value": ">23"}]}
{"substance": "WRWRW-GG-RRRRR (SEQ ID NO: 19) (WRWRWGGRRRRR-NH2) [Peptide 9]", "values": [{"measurement": "SI-1", "setting": "MRC-5 cells; [8]", "value": 23}]}
{"substance": "WRWRW-GG-RRRRRR (SEQ ID NO: 18) [Peptide 8]", "values": [{"measurement": "SI-1", "setting": "MRC-5 cells; [8]", "value": 21}]}
{"substance": "WRWRWGGKKKKKKK [WRWRW-GG-KKKKKKK, WRWRW-GG-KKKKKKK (SEQ ID NO:26)]", "values": [{"measurement": "IC50", "setting": "A20 cells; as described in Example 1", "value": 13.2, "unit": "µM"}]}
{"substance": "WRWRWGGRRRRRRR-NH2 [Peptide 6a, WRWRW-GG-RRRRRRR (SEQ ID NO: 14)]", "values": [{"measurement": "IC50", "setting": "[2]", "value": "< 10", "unit": "µM"}, {"measurement": "IC50", "setting": "[3]", "value": "< 10", "unit": "µM"}, {"measurement": "IC50", "setting": "[4]", "value": "< 10", "unit": "µM"}, {"measurement": "IC50", "setting": "three T-lymphoma lines", "value": "~4.6", "unit": "µM"}, {"measurement": "systemic toxic effects", "setting": "A20 lymphomas", "value": "no signs of systemic toxic effects"}]}
{"substance": "WWWGGRRRRRRRRR [Peptide 6b, WWWGGRRRRRRRRR (SEQ ID NO: 21)]", "values": [{"measurement": "SI-1", "setting": "MRC-5 cells; [8]", "value": 9}, {"measurement": "SI-1", "setting": "MRC-5 cells; [9]", "value": 9}, {"measurement": "IC50", "setting": "A20 cells; Table 3, MTT, 4 hrs treatment", "value": 3.5, "unit": "µM"}]}
